As a reminder, the melting point is the temperature, or range, at which the solid turns liquid. For `N#Cc1c(N)ccc(C(=O)CBr)c1Cl`, the melting point lay in the range of 180 to 207 °C.

Turning to `c1coc(P(CCP(c2ccco2)c2ccco2)c2ccco2)c1`, the melting point was in the range of 94 to 96 °C.

Consider `CC(C)(C)[C@H]1CC[C@H](CCC(=O)N2C(=O)OC[C@@H]2Cc2ccccc2)CC1`, for which the melting point fell in the range of 132 to 135 °C. For `CCC(C)(C)OC(=O)NC(C)(Cc1c[nH]c2ccccc12)C(=O)NCCc1ccncc1` (stereo not given) the value was 138 to 141 °C; for `Cc1cc(C)c(N[C@@H](C)C(=O)O)c(C)c1`, 318 to 320 °C. Then `CCOC(=O)c1ccccc1C(=O)c1ccc2c(c1)C(C)(C)CCC2(C)C`, with 58 to 59 °C.

In turn, `CCc1c(OC)cc(C2CN(C)CCC2=O)cc1OC` (stereo not given) gave a melting point of 84 to 85 °C. For `Cc1nn(-c2ccccn2)c2nc3ccccc3c(N)c12` the value was 210 to 213 °C; for `CN(C)CCCNC(=O)c1ccc(-c2cnc3c(c2)N(C(=O)c2ccccc2)CCN3)cc1`, 94 °C; for `CCOC(=O)c1[nH]c(C)c(CC(C)C)c1C`, 115 to 117 °C.

For the molecule `CN(Cc1ccccc1)C(=O)c1cnc2c3c(c(F)cc2c1)C(=O)C(C#N)C=N3` (stereo not given), the melting point is 267 to 269 °C. Take `C=Cc1ccc(NC(=O)OCC2(C)COC(=O)OC2)cc1`: the melting point is 120 to 121 °C. Then `O=C(Nc1ccccc1)Nc1ccnc(F)c1`, with 179 to 180 °C. `N#Cc1c(F)cc2c(c1Cl)N1CCC[C@@H](NC(=O)C(F)(F)F)[C@@H]1c1ccc(F)cc1O2`: the melting point was 174 to 175 °C. For `CNc1nc(O)cc(O)n1` the value was 290 °C; for `CC(=O)N1CCN(c2ccc(-c3cnc4[nH]cc(C(=O)N[C@@H](C(=O)N5CC(C#N)C5)C5CC5)c4n3)cc2)CC1`, 185 to 188 °C; for `CC(C)(Cc1c2c(nn1CCO)c(N)nc1ccccc12)NS(C)(=O)=O`, 203 to 204 °C. With `COC(=O)c1ccccc1S(=O)(=O)NC(=O)n1nc(Cl)n(N(C)C)c1=O`, the melting point came out at 146 °C.

Molecule `O=C1OC(O)c2c(F)cccc21` (stereo not given) had a melting point of 97 to 100 °C. `CC(=O)CN(C(=O)c1ccco1)c1c(C)cccc1C` came in with a melting point of 90 to 91 °C.

`CC(OC(=O)Nc1ccc(-c2ncn(-c3ccc(C(F)(F)F)cc3)n2)cc1)c1ccc(C(F)(F)F)cc1` (stereo not given) gave a melting point of 156 to 158 °C.

The molecule `Nc1ccc(OCCCCCC(=O)OCCOCCOC(=O)CCCCCOc2ccc(N)cc2)cc1` gave a melting point of 56 to 58 °C.

Consider `CCOC(=O)COc1ccc([N+](=O)[O-])cc1C1C(C(=O)OCC)=C(C)NC(C)=C1C(=O)OCC`, for which the melting point stood at 175 °C. `CCC(O)(c1ccc(Cl)cc1)c1ccc(OCCCN2CCCCC2)cc1` (stereo not given) came in with a melting point of 104 to 105 °C.

As for `Cc1ccccc1-c1nc(Cl)c2ccccc2n1`, the melting point was in the range of 103 to 104 °C. `CC(C)Nc1cccnc1N1CCN(C(=O)c2ccc(C(=O)N3CCSCC3)cc2)CC1` registered a melting point of 163 to 164 °C. In the case of `COc1cc(NC(=O)c2cc3cc(F)ccc3n2Cc2cccc(F)c2)cnc1N1CCCC1`, the melting point was 172 to 174 °C. For `Fc1ccc(COc2ncc(F)c(NCc3ccccc3F)n2)cc1` the value was 83 to 84 °C. The molecule `N#CC1(Nc2ccccc2)CCN(C2C3CCCC2CCC3)CC1` (stereo not given) yielded a melting point of 168 °C.

On to `CC(Oc1ccc(Oc2cnc3cc(Cl)ccc3n2)cc1)C(=O)Nc1ccc(OC(F)(F)F)cc1` (stereo not given), for which the melting point was 156 to 158 °C. As to `CCCN(CCC)C1Cc2cc3c(cc2C1)C(=O)NC3` (stereo not given), the melting point was 206 to 208 °C.

Molecule `CCC(C)(COc1nn2ncnc2cc1C)CS(N)(=O)=O` (stereo not given) displayed a melting point of 189 to 190 °C. Then `CC1CC(=O)NN=C1c1ccc(NC(=O)C2(Cl)CC2)cc1` (stereo not given), with 189 to 190 °C; and `CC(C)[C@@H](NC(=O)OCc1ccccc1)C(=O)C=[N+]=[N-]`, with 68 to 69 °C. For `CCOP(=O)(Cc1cc(C=O)ccc1O)OCC` the value was 88 to 88.5 °C. Then `Cc1c2ccccc2c(C)c2cc3c(cc12)C(=O)OC3=O`, with 278 °C; and `Cc1nc(Cn2cnc3c2c(=O)n(C)c(=O)n3C)no1`, with 135 °C; and `CNC(=O)c1ccccc1I`, with 153 to 154 °C. In the case of `COc1cc(CCCC(=O)OC(C)C)ccc1OCc1nc(-c2ccco2)oc1C`, the melting point is 45 to 46 °C. Then `CNC(=O)c1cc(=O)c2ccccc2o1`, with 224 to 225 °C; and `Cc1nc2ccccc2c2c([N+](=O)[O-])cnn12`, with 178 to 179 °C; and `COc1cc(OC)c2c(=O)[nH]c(-c3ccc(OCCNC(C)C)c(-c4ccc(S(C)=O)cc4)n3)nc2c1` (stereo not given), with 93 to 95 °C.

`COc1ccc2c(c1)C(C(=O)N(Cc1ccc(N)cc1)c1ccc(C(C)C)cc1)CCC2` (stereo not given) had a melting point of 115 to 117 °C. For `COc1cc(N)c2nccc(C)c2c1Oc1ccc(Cl)cc1Cl` the value was 115 to 118 °C; for `O=C(c1ccc(F)cc1)C1CCN(CCN(C(=O)c2cccc([N+](=O)[O-])c2)c2ccc(F)cc2)CC1`, 97 to 113 °C. As for `CC(=O)c1sc(=O)[nH]c1C`, the melting point lay in the range of 208 to 211 °C. Then `O=c1ccccn1C1=CC(CF)(CF)Oc2ccc(C(F)(F)F)cc21`, with 139 to 140 °C.

As for `O=C(O)C1=Cc2cc(C(=O)c3ccccc3)ccc2OC1C(F)(F)F` (stereo not given), the melting point lay in the range of 270 to 271 °C.

Regarding `CN1Cc2cscc2N(CCc2ccccc2)c2ccccc21`, the melting point lay in the range of 53 to 56 °C. Then `O=c1[nH]c2nc(Cl)nc(Cl)c2s1`, with 191 to 192 °C; and `CCC(OCC(F)(F)F)c1ccc(Cl)c2nc3n(c12)CCCN3c1ccc(Cl)cc1Cl` (stereo not given), with 146 to 148 °C. For `CCCc1nc2c(N)nc3cc(-c4cncc(CO)c4)ccc3c2n1CC(C)(C)O` the value was 225 to 226 °C; for `O=c1nc(NO)ccn1C1OC(CO)C(O)C1O` (stereo not given), 173 to 176 °C; for `Cc1cc(Oc2ccc([N+](=O)[O-])c(C(F)(F)F)c2)n[nH]1`, 96 to 98 °C. Consider `CC(=O)NCC1CN(c2ccc(-c3cccc(CN(CC(N)=O)CC(N)=O)c3)c(F)c2)C(=O)O1` (stereo not given), for which the melting point is 213 °C. For `O=Cc1sc2ccccc2c1-c1ccccc1` the value was 86 to 89 °C; for `CC(C)[C@H](NC(=O)CNC(=O)OCC1c2ccccc2-c2ccccc21)C(=O)O`, 69 to 71 °C; for `CNC(=O)C(NC(=O)c1cn(C)nc1C(F)(F)F)C(/C=C/c1ccccc1)c1ccccc1` (stereo not given), 192 to 194 °C.

In turn, `CC(=O)c1ccc(SCc2cc3c(cc2O)CCCO3)cc1` displayed a melting point of 192 to 193 °C. `Nc1cc(=O)n(Cc2ccc(Cl)cc2Cl)[nH]1` returned a melting point of 189 °C. Molecule `CCN(C(=O)C1CC1)c1cccc(-c2ccnc3c(C#N)cnn23)c1` displayed a melting point of 166 to 168 °C. In turn, `Cc1ccc2nc(-c3ccccc3F)oc2n1` showed a melting point of 136 to 137 °C. Then `COC(=O)C[C@@H]1CCC/C1=C\Cc1c(O)c2c(c(C)c1OC)COC2=O`, with 72 to 74 °C. Regarding `O[C@H](COc1cccc2[nH]ccc12)CN1CC=C(c2c[nH]c3c(Cl)c(Cl)ccc23)CC1`, the melting point is 140 to 145 °C. `O=C(Oc1ccccc1)C(=C1NCCCS1)[N+](=O)[O-]` yielded a melting point of 100 to 102 °C.

`CCCC(=O)c1c[nH]c2c(OC)cc(OC(=O)c3ccccc3)cc2c1=O` yielded a melting point of 102 to 104 °C.

`CCOC(=O)c1sc2cc(OCc3cccnc3)ccc2c1Sc1ccccc1N(S(C)(=O)=O)S(C)(=O)=O` showed a melting point of 165 to 167 °C. The molecule `CC(C)(C)c1ccc2c(c1)C(COCc1ccccc1)([Si](C)(C)C)c1cc(C(C)(C)C)ccc1-2` showed a melting point of 100 to 102 °C. Then `COc1ccc(-c2ccc(C(=N)NO)cc2)cc1-c1nc2cc(C(=N)NO)ccc2[nH]1`, with more than 340 °C. For `CCCc1nc2ccccc2c(C(=O)O)c1Oc1ccc(-c2ccccc2C(N)=O)cc1` the value was 230 °C.

As for `O=c1c(F)cn(C2CCCO2)c(=O)n1C1CCCO1` (stereo not given), the melting point was 105 to 108 °C. Molecule `COC(=O)c1nc(-c2ccc(Cl)c(F)c2F)nc(N)c1/C=C/[Si](C)(C)C` displayed a melting point of 139 to 141 °C. `O=C(Nc1cc(CN2CCOCC2)c(O)c(CN2CCOCC2)c1)c1ccccc1`: the melting point lay in the range of 152 to 154 °C. For `Cc1cc(C(=O)c2ccccc2C(F)(F)F)c(N)s1` the value was 136 to 137 °C; for `CCOC(=O)C(O)(Cn1cncn1)c1ccc(F)cc1` (stereo not given), 142 to 144 °C.

With `CC(C)C/C(=C\F)CN1C(=O)c2ccccc2C1=O`, the melting point was 57 to 60 °C.

The molecule `COc1ccc(OCCCCCCI)cc1` registered a melting point of 64 to 66 °C. `O=C1CCN(c2ccc(C=C3SC(=O)NC3=O)cc2F)CC1` showed a melting point of more than 200 °C.

Consider `O=C(O)C(CC1CCCC1)c1cccc([N+](=O)[O-])c1` (stereo not given), for which the melting point is 95 to 99 °C.

Turning to `COc1cc([C@@H](O)[C@@H](C)N2CCC(O)(c3ccccc3)CC2)ccc1OCc1ccccc1` (relative stereo), the melting point was 131 to 132 °C. As to `Cn1cc(C2=C(c3c4n(c5ccccc35)CC3(CCN(C(=O)OC(C)(C)C)C3)C4)C(=O)NC2=O)c2ccccc21` (stereo not given), the melting point lay in the range of 232 to 235 °C.

For the molecule `N#Cc1cccc2c1CC(=O)c1cc(F)ccc1S2`, the melting point was in the range of 174 to 175 °C. Then `O=C(Cn1ccnc1)c1ccc(Cl)cn1`, with 122 to 129 °C; and `Cc1cn(C(C)(C)C(=O)NCc2ccccc2)nc1-c1ccccc1`, with 87 to 90 °C; and `CC(=O)SCC(C)C(=O)N(CC(=O)O)C1CCCCC1` (stereo not given), with 142 to 144 °C. Then `CN(C)CCOc1ccc(CNC(=O)c2ccc(S(N)(=O)=O)cc2)cc1`, with 174 °C; and `COC(=O)c1cc(Cl)c(N)c2c1OCC2`, with 135 °C; and `N#Cc1ccccc1C=Cc1ccccc1C#N`, with 187 to 189 °C. Then `COC(=O)c1cccc(OC)c1OS(=O)(=O)NC(=O)Nc1nc(C)cc(Cl)n1`, with 140 to 143 °C; and `Cc1nc(-c2ccc(O)cc2)sc1C`, with 194 to 195 °C.

These data come from a melting point compilation (Tetko et al.; mined from patent text by program, amines drawn as free bases though some values may be those of a salt).
